Measured values published in ChEMBL document CHEMBL1134742, “Synthesis and structure-activity relationships of thiotetronic acid analogues of thiolactomycin” (2001).
In brackets after ≈: the same amount, converted by molar mass.

What was measured:
Pasteurella multocida = assay: Antibacterial activity against Pasteurella multocida; format: functional
Staphylococcus aureus = assay: Antibacterial activity against Staphylococcus aureus; format: functional

## CC(=O)C1=C(O)S/C(=C\c2ccc(C#N)cc2)C1=O
Pasteurella multocida
  MIC: > 200 mg/L
Staphylococcus aureus
  MIC: 3.13 mg/L (≈ 11.5 µM)

## CC(=O)C1=C(O)S/C(=C\c2ccc(O)cc2)C1=O
Pasteurella multocida
  MIC: > 200 mg/L
Staphylococcus aureus
  MIC: > 200 mg/L

## CC(=O)C1=C(O)S/C(=C\c2ccc(C(F)(F)F)cc2)C1=O
Pasteurella multocida
  MIC: 3.13 mg/L (≈ 9.96 µM)
Staphylococcus aureus
  MIC: 3.13 mg/L (≈ 9.96 µM)

## CCCCCC(=O)/C=C/C(C)=C/[C@@]1(C)SC(O)=C(C)C1=O
Pasteurella multocida
  MIC: > 100 mg/L
Staphylococcus aureus
  MIC: > 100 mg/L

## CC(=O)/C=C/C(C)=C/[C@@]1(C)SC(O)=C(C)C1=O
Pasteurella multocida
  MIC: > 100 mg/L
Staphylococcus aureus
  MIC: > 100 mg/L

## C=C/C(C)=C\[C@@]1(C)SC(O)=C(C)C1=O
Pasteurella multocida
  MIC: 0.2 mg/L (≈ 0.951 µM)
Staphylococcus aureus
  MIC: > 100 mg/L

## CC(=O)C1=C(O)S/C(=C\c2cccc(Oc3cccc(C(F)(F)F)c3)c2)C1=O
Pasteurella multocida
  MIC: 3.13 mg/L (≈ 7.7 µM)
Staphylococcus aureus
  MIC: 0.78 mg/L (≈ 1.92 µM)

## CC(=O)C1=C(O)S/C(=C\c2cccc(Oc3ccc(Cl)c(Cl)c3)c2)C1=O
Pasteurella multocida
  MIC: 0.2 mg/L (≈ 0.491 µM)
Staphylococcus aureus
  MIC: 1.56 mg/L (≈ 3.83 µM)

## CC(=O)C1=C(O)S/C(=C\c2cccc(OCc3ccccc3)c2)C1=O
Pasteurella multocida
  MIC: > 200 mg/L
Staphylococcus aureus
  MIC: 3.13 mg/L (≈ 8.88 µM)

## CC(=O)C1=C(O)S/C(=C\c2ccccc2)C1=O
Pasteurella multocida
  MIC: > 200 mg/L
Staphylococcus aureus
  MIC: > 200 mg/L

## CC1=C(O)S[C@](C)(/C=C(\C)C=C(Br)Br)C1=O
Pasteurella multocida
  MIC: > 100 mg/L
Staphylococcus aureus
  MIC: > 100 mg/L

## CC(=O)C1=C(O)SC(C)(C/C=C(\C)CC/C=C(\C)CCC=C(C)C)C1=O (stereo not given)
Pasteurella multocida
  MIC: 1.56 mg/L (≈ 4.14 µM)
Staphylococcus aureus
  MIC: > 200 mg/L

## CC(=O)C1=C(O)SC(C/C=C(/C)CC/C=C(\C)CCC=C(C)C)(C/C=C(/C)CC/C=C(\C)CCC=C(C)C)C1=O
Pasteurella multocida
  MIC: > 200 mg/L
Staphylococcus aureus
  MIC: > 200 mg/L

## CC(=O)C1=C(O)SC(C/C=C(\C)CC/C=C(\C)CCC=C(C)C)C1=O (stereo not given)
Pasteurella multocida
  MIC: 0.2 mg/L (≈ 0.552 µM)
Staphylococcus aureus
  MIC: 1.56 mg/L (≈ 4.3 µM)

## CC(=O)C1=C(O)S/C(=C\c2ccccn2)C1=O
Pasteurella multocida
  MIC: 100 mg/L (≈ 404 µM)
Staphylococcus aureus
  MIC: > 200 mg/L

## CC(=O)C1=C(O)S/C(=C\c2ccc(F)cc2)C1=O
Pasteurella multocida
  MIC: 3.13 mg/L (≈ 11.8 µM)
Staphylococcus aureus
  MIC: > 200 mg/L

## CC1=C(O)S[C@](C)(/C=C(C)/C=C/C#N)C1=O
Pasteurella multocida
  MIC: > 100 mg/L
Staphylococcus aureus
  MIC: > 100 mg/L

## CC(=O)C1=C(O)C(C)(Cc2ccc(F)cc2)SC1=O (stereo not given)
Pasteurella multocida
  MIC: > 200 mg/L
Staphylococcus aureus
  MIC: > 200 mg/L

## CC(=O)C1=C(O)S/C(=C\c2cccc(F)c2)C1=O
Pasteurella multocida
  MIC: 6.25 mg/L (≈ 23.6 µM)
Staphylococcus aureus
  MIC: 50 mg/L (≈ 189 µM)

## CC(=O)C1=C(O)SC(Cc2cccc(C(F)(F)F)c2)C1=O (stereo not given)
Pasteurella multocida
  MIC: 3.13 mg/L (≈ 9.9 µM)
Staphylococcus aureus
  MIC: 3.13 mg/L (≈ 9.9 µM)

## CC(=O)C1=C(O)S/C(=C\N(C)C)C1=O
Pasteurella multocida
  MIC: > 200 mg/L
Staphylococcus aureus
  MIC: > 200 mg/L

## CC(=O)C1=C(O)SC(C)(C/C=C(/C)CCC=C(C)C)C1=O (stereo not given)
Pasteurella multocida
  MIC: 100 mg/L (≈ 324 µM)
Staphylococcus aureus
  MIC: > 200 mg/L

## CC(=O)C1=C(O)SC(C/C=C/c2ccccc2)C1=O (stereo not given)
Pasteurella multocida
  MIC: 3.13 mg/L (≈ 11.4 µM)
Staphylococcus aureus
  MIC: 3.13 mg/L (≈ 11.4 µM)

## CC(=O)OC1=C(C)C(=O)S[C@]1(C)/C=C(\C)C=O
Pasteurella multocida
  MIC: > 100 mg/L
Staphylococcus aureus
  MIC: > 100 mg/L

## CC1=C(O)S[C@](C)(/C=C(C)/C=C/c2ccccc2)C1=O
Pasteurella multocida
  MIC: > 100 mg/L
Staphylococcus aureus
  MIC: > 100 mg/L

## CCCNC/C(C)=C/[C@@]1(C)SC(O)=C(C)C1=O
Pasteurella multocida
  MIC: > 100 mg/L
Staphylococcus aureus
  MIC: > 100 mg/L

## CCOC(=O)/C=C/C(C)=C/[C@@]1(C)SC(O)=C(C)C1=O
Pasteurella multocida
  MIC: > 100 mg/L
Staphylococcus aureus
  MIC: > 100 mg/L

## CC1=C(O)S[C@](C)(/C=C(\C)CO)C1=O
Pasteurella multocida
  MIC: > 100 mg/L
Staphylococcus aureus
  MIC: > 100 mg/L

## C=C/C(C)=C/[C@@]1(C)SC(=O)C(C)=C1OC(C)=O
Pasteurella multocida
  MIC: > 100 mg/L
Staphylococcus aureus
  MIC: > 100 mg/L

## CC(=O)C1=C(O)SC(C)C1=O (stereo not given)
Pasteurella multocida
  MIC: 6.25 mg/L (≈ 36.3 µM)
Staphylococcus aureus
  MIC: 50 mg/L (≈ 290 µM)

## CC(=O)C1=C(O)S/C(=C\c2ccc(Cl)cc2Cl)C1=O
Pasteurella multocida
  MIC: 3.13 mg/L (≈ 9.93 µM)
Staphylococcus aureus
  MIC: 3.13 mg/L (≈ 9.93 µM)

## CC(=O)C1=C(O)SC(CCC(C)CCCC(C)C)C1=O (stereo not given)
Pasteurella multocida
  MIC: 3.13 mg/L (≈ 10.5 µM)
Staphylococcus aureus
  MIC: 0.78 mg/L (≈ 2.61 µM)

## CC(=O)C1=C(O)SCC1=O
Pasteurella multocida
  MIC: > 200 mg/L
Staphylococcus aureus
  MIC: > 200 mg/L

## CCOC(=O)/C=C/C=C/C(C)=C/[C@@]1(C)SC(O)=C(C)C1=O
Pasteurella multocida
  MIC: > 100 mg/L
Staphylococcus aureus
  MIC: > 100 mg/L

## CC(=O)C1=C(O)SC(COC(=O)Cc2ccccc2)C1=O (stereo not given)
Pasteurella multocida
  MIC: > 200 mg/L
Staphylococcus aureus
  MIC: 3.13 mg/L (≈ 10.2 µM)

## CC(=O)C1=C(O)S/C(=C\c2ccc3c(c2)OCO3)C1=O
Pasteurella multocida
  MIC: > 200 mg/L
Staphylococcus aureus
  MIC: > 200 mg/L

## CC(=O)C1=C(O)C(C)(C/C=C/c2ccccc2)SC1=O (stereo not given)
Pasteurella multocida
  MIC: > 200 mg/L
Staphylococcus aureus
  MIC: 3.13 mg/L (≈ 10.9 µM)

## CC1=C(O)S[C@](C)(/C=C(C)/C=N/OCc2ccccc2)C1=O
Pasteurella multocida
  MIC: > 100 mg/L
Staphylococcus aureus
  MIC: > 100 mg/L

## CC1=C(O)S[C@](C)(/C=C(\C)C#N)C1=O
Pasteurella multocida
  MIC: > 100 mg/L
Staphylococcus aureus
  MIC: > 100 mg/L

## CC(=O)C1=C(O)S/C(=C\c2cccs2)C1=O
Pasteurella multocida
  MIC: 1.56 mg/L (≈ 6.18 µM)
Staphylococcus aureus
  MIC: > 200 mg/L
